“Also recorded” adds a separate entry of the source.

The source of these data is paper PMC5962642, “Dynamic imaging of adaptive stress response pathway activation for prediction of drug induced liver injury” (Archives of Toxicology, 2018).

One series deals with Srxn1-GFP (oxidative stress). Briefly: HepG2 Srxn1-GFP BAC reporter, live cell confocal imaging (oxidative stress). It counts as cell-based, Human. To be noted: HepG2 BAC-GFP, 24 h live imaging, 1-100 C-max. The method, then: (§1) Human hepatoma HepG2 cells were acquired from ATCC (clone HB8065). HepG2 Srxn1, DDIT3 (CHOP), CDKN1A (p21) and ICAM1 BAC GFP reporter cell lines were previously established and characterized (Wink et al. [2017]). HepG2 BAC GFP reporters were maintained and exposed to drugs in DMEM high glucose supplemented with 10% (v/v) FBS, 25 U/mL penicillin and 25 µg/mL streptomycin. The cell lines were used between passage 5 and 25. For live cell imaging, the cells were seeded in Greiner black µ-clear 384 wells plates, at 8000 cells per well.
Accumulation of GFP levels, propodium iodide (PI) and Hoechst staining was monitored using a Nikon TiE2000 confocal laser microscope (lasers 540, 488 and 408 nm), equipped with an automated stage and perfect focus system at 37 °C with humidified atmosphere and 5% CO2/air mixture. All imaging was similar as previously described^5. Each 384-well plate contained one reporter cell line, which was exposed to all the compounds used in the screen at one certain concentration (1, 5, 10, 50 or 100 Cmax); for each concentration at least two replicates were imaged per reporter cell line. For the ICAM1-GFP reporter experiments, cells were first exposed for 8 h to compound only; next, TNFα was added to all wells, up to a final concentration of 10 ng/mL. Directly after TNFα treatment the live cell imaging was started.
Quantitative image analysis was performed with CellProfiler version 2.1.1 (Kamentsky et al. [2011]) with an in house developed CellProfiler module implementing the watershed masked algorithm for segmentation (Yan and Verbeek [2012]; Wink et al. [2017]). Image analysis results were stored as HDF5 files. Data analysis, quality control and graphics were performed using the in house developed R package h5CellProfiler (manuscript in preparation). For each reporter hourly intensity levels of the GFP signal, the nuclear Hoechst33342 intensity levels and at 24 h the PI staining were measured at the single cell level. In addition, cell numbers, nuclei size and cell motility were measured.
GFP intensity cell population means were calculated. In addition, for each plate the cell population mean GFP intensity of the DMSO treated cells was calculated to determine background control values. Per plate, the single cells that had values above the 2X mean, 3X mean were counted resulting in GFP positive fraction measures. For ICAM1, the background control values consisted of DMSO conditions treated with TNFα, and the single cells with values above, as well as below background values were counted. Due to the non-symmetric distribution of ICAM1 cell population GFP intensities, the interquartile range (IQR) was used to count the number of cells 1.5, 2 and 3 times above and below the TNFα IQR control values (Supplemental Fig. 1).
The maximum values over time of the scaled intensity levels and positive GFP fractions were selected for the concentration response curves. These values were fit to a four parameter log-logistic model using the drc package (Ritz et al. [2015]). BMC values were calculated as the concentration at which + 0.25 (and − 0.25 for ICAM1) absolute increase from the initial response values occurred (Fig. 5a).
Take `C[C@](N)(Cc1ccc(O)c(O)c1)C(=O)O` [Methyldopa]: the Srxn1-GFP reporter response result was “increased”.

Consider `Cn1cnc([N+](=O)[O-])c1Sc1ncnc2nc[nH]c12` [Azathioprme, azathioprine], for which the Srxn1-GFP reporter response entry was “mild Srxn1-GFP and ICAM1-GFP activation”.

As for `COc1cc2c(c(OC)c1OC)-c1ccc(OC)c(=O)cc1[C@@H](NC(C)=O)CC2` [Colchicine], the Srxn1-GFP reporter response result is “mild Srxn1-GFP and ICAM1-GFP activation”.

Still in this series, the particulars now being: cluster description; reporter not resolved per drug (Srxn1-GFP and/or CHOP-GFP).
For the compound `O=C1CN(/N=C/c2ccc(-c3ccc([N+](=O)[O-])cc3)o2)C(O)=N1` [Dantrolene], the “activation of Srxn1-GFP and/or CHOP-GFP (cluster 3)” value (shortened to “activation”) is recorded as “activation of Srxn1-GFP and/or CHOP-GFP”.

Take `O=C(O)Cc1ccccc1Nc1c(Cl)cccc1Cl` [Diclofenac]: the “activation” value is given as “activation of Srxn1-GFP and/or CHOP-GFP”.

As to `Nc1c(CC(=O)O)cccc1C(=O)c1ccc(Br)cc1` [Bromfenac], the “activation” value was “activation of Srxn1-GFP and/or CHOP-GFP”.

In another series the test system is p21-GFP (p53-mediated DNA damage-related response). Briefly: HepG2 p21-GFP BAC reporter, live cell confocal imaging (DNA damage). The conditions noted are these: 24 h live imaging, 1-100 C-max. It counts as cell-based, Human. As for the experimental part:
as §1
Accumulation of GFP levels, propodium iodide (PI) and Hoechst staining was monitored using a Nikon TiE2000 confocal laser microscope (lasers 540, 488 and 408 nm), equipped with an automated stage and perfect focus system at 37 °C with humidified atmosphere and 5% CO2/air mixture. All imaging was similar as previously described^5. […]
Quantitative image analysis was performed with CellProfiler version 2.1.1 (Kamentsky et al. [2011]) with an in house developed CellProfiler module implementing the watershed masked algorithm for segmentation (Yan and Verbeek [2012]; Wink et al. [2017]). […] For each reporter hourly intensity levels of the GFP signal, the nuclear Hoechst33342 intensity levels and at 24 h the PI staining were measured at the single cell level. In addition, cell numbers, nuclei size and cell motility were measured.
GFP intensity cell population means were calculated. In addition, for each plate the cell population mean GFP intensity of the DMSO treated cells was calculated to determine background control values. Per plate, the single cells that had values above the 2X mean, 3X mean were counted resulting in GFP positive fraction measures. For ICAM1, the background control values consisted of DMSO conditions treated with TNFα, and the single cells with values above, as well as below background values were counted. […]
`C[C@](N)(Cc1ccc(O)c(O)c1)C(=O)O` [Methyldopa]: the p21-GFP reporter response entry was “increased”.

A further series deals with ICAM1-GFP (NF-κB-mediated inflammatory signaling). The experiment in a line: HepG2 ICAM1-GFP BAC reporter, TNFα-induced, live cell confocal imaging. It counts as cell-based, Human. The conditions noted are these: HepG2 BAC-GFP, 8 h compound then TNFα 10 ng/mL, 24 h live imaging, 1-100 C-max. The method, then:
Human hepatoma HepG2 cells were acquired from ATCC (clone HB8065). HepG2 Srxn1, DDIT3 (CHOP), CDKN1A (p21) and ICAM1 BAC GFP reporter cell lines were previously established and characterized (Wink et al. [2017]). […] The cell lines were used between passage 5 and 25. For live cell imaging, the cells were seeded in Greiner black μ-clear 384 wells plates, at 8000 cells per well. […] All imaging was similar as previously described^5. […] Directly after TNFα treatment the live cell imaging was started. Quantitative image analysis was performed with CellProfiler version 2.1.1 ([…] et al. [2011]) with an in house developed CellProfiler module implementing the watershed masked algorithm for segmentation (Yan and Verbeek [2012]; Wink et al. [2017]). Image analysis results were stored as HDF5 files. Data analysis, quality control and graphics were performed using the in house developed R package h5CellProfiler (manuscript in preparation). For each reporter hourly intensity levels of the GFP signal, the nuclear Hoechst33342 intensity levels and at 24 h the PI staining were measured at the single cell level. In addition, cell numbers, nuclei size and cell motility were measured. GFP intensity cell population means were calculated. In addition, for each plate the cell population mean GFP intensity of the DMSO treated cells was calculated to determine background control values. Per plate, the single cells that had values above the 2X mean, 3X mean were counted resulting in GFP positive fraction measures. For ICAM1, the background control values consisted of DMSO conditions treated with TNFα, and the single cells with values above, as well as below background values were counted. […] Linear regression was applied with respect to time to quantify treatment effects on a plate-to-plate basis to quantify cell speed, nuclear size, Hoechst nuclear intensity and cell numbers. […] The maximum values over time of the scaled intensity levels and positive GFP fractions were selected for the concentration response curves. These values were fit to a four parameter log-logistic model using the drc package (Ritz et al. [2015]). BMC values were calculated as the concentration at which + 0.25 (and - 0.25 for ICAM1) absolute increase from the initial response values occurred (Fig. 5a).
As for `C[C@](N)(Cc1ccc(O)c(O)c1)C(=O)O` [Methyldopa], the “modulation of TNFα-induced ICAM1-GFP response” value (from here on “modulation”) is given as “inhibited”.

For the compound `O=C1CN(/N=C/c2ccc(-c3ccc([N+](=O)[O-])cc3)o2)C(O)=N1` [Dantrolene], the “modulation” value is reported as “mild ICAM1-GFP suppression”.

Regarding `O=C(O)Cc1ccccc1Nc1c(Cl)cccc1Cl` [Diclofenac], the “modulation” value is “inhibiting; also recorded: mild ICAM1-GFP suppression”.

With `Nc1c(CC(=O)O)cccc1C(=O)c1ccc(Br)cc1` [Bromfenac], the “modulation” value is “mild ICAM1-GFP suppression”.

Consider `Cn1cnc([N+](=O)[O-])c1Sc1ncnc2nc[nH]c12` [Azathioprme, azathioprine], for which the “modulation” value is “enhancing; also recorded: mild Srxn1-GFP and ICAM1-GFP activation”.

As to `COc1cc2c(c(OC)c1OC)-c1ccc(OC)c(=O)cc1[C@@H](NC(C)=O)CC2` [Colchicine], the “modulation” value was “mild Srxn1-GFP and ICAM1-GFP activation”.

Tested on in a further series: not given
Experiment: not given
The conditions noted are these: two classes made from the FDA DILI-concern labeling.
Take `O=C(O)Cc1ccccc1Nc1c(Cl)cccc1Cl` [Diclofenac]: the Severity class result is “Sev”.

Take `COc1cc2c(c(OC)c1OC)-c1ccc(OC)c(=O)cc1[C@@H](NC(C)=O)CC2` [Colchicine]: the Severity class entry is “Non-sev”.

Tested on in another series: not given
Experiment: not given
The conditions noted are these: C-max obtained from FDA or literature; ref per compound (FDA, Dailymed, Xu, O’Brien, Khetani, Regenthal, Gustafsson, Dawson, Ogutu, Patel, Schmidt, Ravic, Keisu, Hu, Wagner); cited from earlier work.
One may read the Cmax as the highest concentration seen after dosing. Take `C[C@](N)(Cc1ccc(O)c(O)c1)C(=O)O` [Methyldopa]: the highest concentration (Cmax) was 18.9 µM.

Consider `O=C1CN(/N=C/c2ccc(-c3ccc([N+](=O)[O-])cc3)o2)C(O)=N1` [Dantrolene], for which the maximum concentration (Cmax) was 7.9 µM.

For `O=C(O)Cc1ccccc1Nc1c(Cl)cccc1Cl` [Diclofenac], the Cmax is 10.1 µM.

As for `Nc1c(CC(=O)O)cccc1C(=O)c1ccc(Br)cc1` [Bromfenac], the maximum concentration (Cmax) is 18 µM.

For `Cn1cnc([N+](=O)[O-])c1Sc1ncnc2nc[nH]c12` [Azathioprme, azathioprine], the Cmax is 0.34 µM.

For `COc1cc2c(c(OC)c1OC)-c1ccc(OC)c(=O)cc1[C@@H](NC(C)=O)CC2` [Colchicine], the peak concentration (Cmax) is 0.016 µM.

Tested on in another series: not given
Experiment: not given
The conditions noted are these: FDA DILI labeling; ref Chen et al. [2016]; cited from earlier work.
For the compound `C[C@](N)(Cc1ccc(O)c(O)c1)C(=O)O` [Methyldopa], the “DILI con. (DILI-concern labeling)” value is reported as “Most-DC”.

Regarding `O=C1CN(/N=C/c2ccc(-c3ccc([N+](=O)[O-])cc3)o2)C(O)=N1` [Dantrolene], the “DILI con. (DILI-concern labeling)” value is “Most-DC”.

For the compound `Nc1c(CC(=O)O)cccc1C(=O)c1ccc(Br)cc1` [Bromfenac], the “DILI con. (DILI-concern labeling)” value is listed as “Most-DC”.

As for `Cn1cnc([N+](=O)[O-])c1Sc1ncnc2nc[nH]c12` [Azathioprme, azathioprine], the “DILI con. (DILI-concern labeling)” value is “Most-DC”.

For `COc1cc2c(c(OC)c1OC)-c1ccc(OC)c(=O)cc1[C@@H](NC(C)=O)CC2` [Colchicine], the “DILI con. (DILI-concern labeling)” value is on record as “Amb.-DC”.

The same series, now with this note: FDA labeling in eight classes of hepatotoxicity; ref Chen et al. [2016]; cited from earlier work.
On to `C[C@](N)(Cc1ccc(O)c(O)c1)C(=O)O` [Methyldopa], for which the “Hepa. (hepatotoxicity class)” value was 8.

On to `O=C1CN(/N=C/c2ccc(-c3ccc([N+](=O)[O-])cc3)o2)C(O)=N1` [Dantrolene], for which the “Hepa. (hepatotoxicity class)” value is recorded as 8.

As to `Nc1c(CC(=O)O)cccc1C(=O)c1ccc(Br)cc1` [Bromfenac], the “Hepa. (hepatotoxicity class)” value is listed as 8.

`Cn1cnc([N+](=O)[O-])c1Sc1ncnc2nc[nH]c12` [Azathioprme, azathioprine]: the “Hepa. (hepatotoxicity class)” value is 5.

With `COc1cc2c(c(OC)c1OC)-c1ccc(OC)c(=O)cc1[C@@H](NC(C)=O)CC2` [Colchicine], the “Hepa. (hepatotoxicity class)” value is on record as 6.

Tested on in a further series: not given
Experiment: not given
To be noted: ref livertox.nih.gov database; cited from earlier work.
Take `C[C@](N)(Cc1ccc(O)c(O)c1)C(=O)O` [Methyldopa]: the “Metab (metabolic potential)” value is given as “YES”.

With `O=C1CN(/N=C/c2ccc(-c3ccc([N+](=O)[O-])cc3)o2)C(O)=N1` [Dantrolene], the “Metab (metabolic potential)” value is “YES”.

Turning to `Cn1cnc([N+](=O)[O-])c1Sc1ncnc2nc[nH]c12` [Azathioprme, azathioprine], the “Metab (metabolic potential)” value is “YES”.

Consider `COc1cc2c(c(OC)c1OC)-c1ccc(OC)c(=O)cc1[C@@H](NC(C)=O)CC2` [Colchicine], for which the “Metab (metabolic potential)” value was “YES”.
